Measurements taken from US20060199772A1, “Use of a proteasome inhibitor in the treatment of endothelial dysfunction and/or in a low-dose proteasome inhibitor therapy” (Charite'-Universitaetsmedizin Berlin, priority 2002, published 2006).
“Also recorded” adds a separate entry of the source. Where a SMILES comes first, the peptide text is derived from it. The star is where a group is joined. Cbz = O=C(OCc1ccccc1)*

Key:
eNOS [1] = assay: eNOS protein expression by Western blot in CPAE cells; assay type: cell-based, bovine; conditions: for upregulation of eNOS protein (specificity comparison with MG132): equipotent doses
Experimental: (§1) The bovine pulmonary artery endothelial cell line (CPAE cells) was purchased from the American Type Culture Collection (ATCC, # CCL-209) and was cultured in MEM supplemented with 5% FCS, 1.5 g/L sodium bicarbonate, 0.11 g/L sodium pyruvate, 100 U/mL penicillin, and 100 μg/ml streptomycin. Human umbilical vein endothelial cells (HUVECs) were isolated and cultured as described previously (Stangl et al. Homocysteine inhibits TNF-α-induced endothelial adhesion molecule expression and monocyte adhesion via nuclear factor-κB dependent pathwas. Biochem Biophys Commun. 2001; 280:1093-1100). Purity of HU-VECs was assessed by von Willebrand factor staining. For experiments, cells were seeded onto […] dishes and were treated with either proteasome inhibitors MG132, MG262, with the non-proteasomal cathepsin inhibitor ALLM, or with solvent (DMSO) for the times and concentrations indicated. In some experiments, the transcription inhibitor α-amanitin (2.5 μg/mL) was pre-incubated one hour before addition of proteasome inhibitor. Cell viability was assessed by trypan blue exclusion. For HUVECs, the inventors used only second- to third-passage cells for all experiments. For phalloidin-DAPI double staining, cells were fixed with 4% paraformaldehyde, permeabilized with 1% Triton, and blocked with 1% FCS. The inventors took cell photos with a Zeiss camera and analysed them with Axiovert 3.0 software.
(§2) After treatment, cells were washed twice with PBS and lysed in extraction buffer containing in mmol/L: Tris/HCl 50 (pH 7.4), KCl 154, glucose 5, EDTA 0.5, PMSF 1, DTT 2, and 1% Triton X-100. Total protein (50 μg per lane) was subjected to SDS-PAGE and membranes were probed with anti-eNOS monoclonal antibody (1:2500) or with anti-ubiquitin antibody (1:1000). Membranes were incubated with secondary anti-mouse antibody (1:2500) conjugated to alkaline phosphatase for eNOS or with anti-rabbit antibody conjugated to horseradish peroxidase (1:10000) for ubiquitin. Bands were visualized by using BCIP and Nitro Blue Tetrazolium (Sigma) for eNOS, and by employing the ECL detection system (Amersham) for ubiquitin.

proteasome = assay: Accumulation of poly-ubiquitinylated proteins (anti-ubiquitin Western blot) in CPAE cells; assay type: cell-based, bovine
Experimental: as §1, §2

eNOS mRNA [2] = assay: eNOS mRNA levels by real-time RT-PCR in CPAE cells; assay type: cell-based, bovine
Experimental: as §1
After treatment, cells were lysed in Trizol reagent (Gibco Life Technologies, Karlsruhe, Germany) and 800 ng of total RNA were reversed transcribed with random hexamers. Primer sequences were synthesized by TIB Molbiol (Berlin, Germany), and TaqMan probes by Eurogentec (Seraing, Belgium). Table 1 summarizes the sequences of primers and probes used in this study. mRNA expression was standardized to the HPRT (hypoxanthine phosphoribosyl transferase) gene as a housekeeping gene, the transcription level of which were not influenced under our experimental conditions. PCR amplification was carried out in 25 μL TaqMan Universal PCR Master Mix (Perkin Elmer Applied Biosystems, Foster City, Calif.) containing either 0.3 or 0.9/μmol/L primer, 0.2/μmol/L TaqMan probe, and 1 μl of the reverse transcription reaction in a 5700 Sequence Detection System (Perkin Elmer Applied Biosystems). Thermal cycling conditions comprised an initial denaturation step at 95° C. for 10 minutes, followed by 95° C. for 15 seconds and 60° C. for 1 minute for 40 cycles. Size and purity of the amplification products were verified on a 20% PAA gel. The CT (threshold cycle) is defined as the number of cycles required for the fluorescence signal to exceed the detection threshold. The expression of the target gene relative to the housekeeping gene was calculated as the difference between the threshold values for the two genes.
The SYBR Green method was applied for quantitative amplification of bovine eNOS mRNA. In our analysis with the transcription inhibitor α-amanitin—which blocks RNA polymerase II, whereas RNA polymerase I is insensitive to this toxin (Lindell T J et al. Specific inhibition of nuclear RNA polymerase II by alpha-amanitin. Science. 1970; 170: 447-449)—the inventors standardized eNOS mRNA expression to RP29 (ribosomal protein 29) gene as housekeeping gene. Thermal cycling conditions were identical to the TaqMan PCR.

eNOS [3] = assay: eNOS protein expression by Western blot in HUVECs; assay type: cell-based, human
Experimental: as §1, with “For phalloidin-DAPI double staining, cells were fixed with 4% paraformaldehyde, permeabilized with 1% Triton, and blocked with 1% FCS.” left out, “software. […]” for “software.”

eNOS mRNA [4] = assay: eNOS mRNA levels by real-time RT-PCR in HUVECs, with or without TNF-α; assay type: cell-based, human; conditions: 48 hours
Experimental: Purity of HU-VECs was assessed by von Willebrand factor staining. For experiments, cells were seeded onto 6-mm diameter dishes and were treated with either proteasome inhibitors MG132, MG262, with the non-proteasomal cathepsin inhibitor ALLM, or with solvent (DMSO) for the times and concentrations indicated. In some experiments, the transcription inhibitor α-amanitin (2.5 μg/mL) was pre-incubated one hour before addition of proteasome inhibitor. Cell viability was assessed by trypan blue exclusion. For HUVECs, the inventors used only second- to third-passage cells for all experiments.
For eNOS expression in HUVECs, cells were treated with DMSO (control), TNF-α (1, 2.5 and 5 ng/ml) and TNF-α (same concentrations) in the presence of 70 nM MG132, for 48 hours, whereupon eNOS mRNA levels were measured (see Method 3).
After treatment, cells were lysed in Trizol reagent (Gibco Life Technologies, Karlsruhe, Germany) and 800 ng of total RNA were reversed transcribed with random hexamers. Primer sequences were synthesized by TIB Molbiol (Berlin, Germany), and TaqMan probes by Eurogentec (Seraing, Belgium). […] The CT (threshold cycle) is defined as the number of cycles required for the fluorescence signal to exceed the detection threshold. The expression of the target gene relative to the housekeeping gene was calculated as the difference between the threshold values for the two genes.

eNOS [5] = assay: eNOS activity, L-[3H]arginine to L-[3H]citrulline conversion in extracts of treated CPAE cells; assay type: cell-based, bovine
Experimental: eNOS activity was assessed by the formation of L-[^3H]citrulline from L-[^3H]arginine after separation of the amino acids by cation exchange chromatography. Endothelial cells were washed with PBS and lysed in the same extraction buffer as for Western blot analysis. The inventors added 50 μg of total protein to the reaction mixture containing 50 mmol/L Hepes pH 7.4, 0.1% Triton X-100, 1 mmol/L EDTA, 1.25 mmol/L CaCl2, 1 mmol/L DTT, 1 μmol/L FAD, 15 μmol/L BH4, 1 mmol/L NADPH, and 1 μCi L-[^3H]arginine. Incubation was performed for 30 minutes at 37° C. Reactions were terminated by adding 0.5 ml of ice-cold Dowex (Na^+ form). L-[^3H]citrulline was separated from L-[^3H]arginine by Dowex chromatography, and L-[^3H]citrulline formation was quantified by liquid scintillation counting. The inventors subtracted the values obtained from samples incubated without cell extracts. […] In some samples, CaCl2 was omitted from the reaction buffer to exclude any contribution of inducible NO synthase (iNOS).

rat aortic rings = assay: Vasorelaxation studies in pretreated rat aortic rings (organ chamber); assay type: cell-based; conditions: 48 hours
Experimental: Thoracic aortas from male Wistar rats were rapidly excised, cleaned of connective tissue, and cut into rings 2 to 3 mm in length for organ-chamber experiments. Rings were incubated with MG132 100 nmol/L, 250 nmol/L, or solvent, or TNF-α (250 pg/ml) in the presence and absence of 250 nM MG132, for 48 hours in MEM at 37° C. containing 50 U/mL penicillin, 50 μg/mL streptomycin, 0.1% BSA, and 1 μg/mL polymyxin B. The rings were then mounted on platinum hooks in 10 ml jacketed organ baths containing modified Krebs-Henseleit solution (composition in mmol/L: NaCl 144, KCl 5.9, CaCli 1.6, MgSO^4− 1.2, KH2PO4^− 1.2, NaHCO3^− 25, and D-glucose 11.1) and diclofenac 1 μmol/L. Tension was gradually adjusted to 2 g over 1 hour. The solution in the bath was kept at 37° C. with a gas mixture of […]. Following equilibration and submaximal precontraction with phenylephrine (0.05 μmol/L), relaxation to increasing concentrations (1 nmol/L to 1 μmol/L) of the endothelium-dependent vasodilator acetylcholine was performed to obtain cumulative concentration-response curves. Selected studies were conducted in rings treated with L-NAME (1 mmol/L) before phenylephrine exposure. Maintenance of smooth-muscle integrity following incubation with the proteasome inhibitor or solvent was confirmed by evaluation of endothelium-independent vasodilation to papaverine (1 nmol/L to 1 μmol/L).

CPAE cells = assay: Cell viability by trypan blue exclusion; assay type: cell-based, bovine
Experimental: as §1, with “For phalloidin-DAPI double staining, cells were fixed with 4% paraformaldehyde, permeabilized with 1% Triton, and blocked with 1% FCS.” left out

[6] = test system: cultured neonatal rat cardiomyocytes; conditions: cited from earlier work
cardiomyocytes = conditions: cited from earlier work
[7] = rat aortic rings pretreated 100 and 250 nmol/L

CSCC[C@@H](C=O)NC(=O)[C@H](CC(C)C)NC(=O)[C@H](CC(C)C)NC(C)=O [ALLM, N-acetyl-leucyl-leucyl-methioninal] (Ac-Leu-Leu-Met-aldehyde)
upregulation of eNOS protein (specificity comparison with MG132) (eNOS [1]): had no effect; also recorded: failed to upregulate eNOS | proteasome inhibition (poly-ubiquitinylated proteins), comparison with MG132 (proteasome; corresponding doses): failed to inhibit the proteasome

CC[C@H](C)[C@@H]1NC(=O)CNC(=O)[C@@H]2Cc3c([nH]c4cc(O)ccc34)[S+]([O-])C[C@@H](NC(=O)CNC1=O)C(=O)N[C@@H](CC(N)=O)C(=O)N1C[C@H](O)C[C@H]1C(=O)N[C@@H]([C@@H](C)[C@@H](O)CO)C(=O)N2 (stereo in doubt) [α-amanitin]
effect on overall eNOS mRNA levels (eNOS mRNA [2]; 2.5 μg/mL, pre-incubated 1 hour): reduced overall eNOS mRNA levels

CC(C)C[C@H](NC(=O)[C@H](CC(C)C)NC(=O)[C@H](CC(C)C)NC(=O)OCc1ccccc1)B(O)O [MG262]
upregulation of eNOS protein (specificity comparison with MG132) (eNOS [1]): also upregulates eNOS; also recorded: Comparable results; also recorded: induced upregulation of eNOS protein to an extent similar to that caused by MG132

CC(C)C[C@@H](C=O)NC(=O)[C@H](CC(C)C)NC(=O)[C@H](CC(C)C)NC(=O)OCc1ccccc1 [MG132, N-carbobenzoxy-L-leucinyl-L-leucinyl-L-leucinal] (Cbz-Leu-Leu-Leu-aldehyde)
effect on eNOS expression at 20 nmol/L (eNOS [1]; 20 nmol/L): did not affect eNOS expression | time from which eNOS upregulation is significant (eNOS [1]; 50 nmol/L): 24 h | duration of enhanced eNOS protein after a single dose (eNOS [1]; 100 nmol/L single dose): up to 10 days | effect on eNOS protein levels at higher concentrations (eNOS [1]; 500 nmol/L and above): decreased eNOS protein levels | effect on eNOS protein levels at low concentrations (eNOS [1]; 50 to 250 nmol/L): gradually increased eNOS protein levels | time at which the rise of eNOS protein expression began (eNOS [1]; incubation with single dose): 16 h | eNOS protein expression versus control (eNOS [1]; single dose 100 nmol/L, 48 hours): 2.4 fold | eNOS protein expression in HUVECs (eNOS [3]): dose-dependent increase in eNOS | concentration from which poly-ubiquitinylated proteins accumulate (proteasome): ≥ 50 nmol/L | proteasome inhibition at 20 nmol/L (proteasome; 20 nmol/L): had no proteasomal inhibitory influence | time for which poly-ubiquitinylated proteins are detectable after a single dose (proteasome; 100 nmol/L single dose): three | accumulation of poly-ubiquitinylated proteins (proteasome; 50 to 250 nmol/L): led to accumulation of poly-ubiquitinylated proteins | time at which upregulation of eNOS mRNA begins (eNOS mRNA [2]): 16 h | time at which eNOS mRNA is still elevated after a single dose (eNOS mRNA [2]; 100 nmol/L single dose): 7 days | maximum eNOS mRNA level, times the control level (eNOS mRNA [2]; 100 nmol/L, 24 hours): 6.5 times the control level | MG132-induced increase in eNOS mRNA after α-amanitin pretreatment (eNOS mRNA [2]; α-amanitin pretreatment 1 hour): without eliminating the increase in mRNA levels induced by MG132 | eNOS mRNA expression in presence of TNF-α versus TNF-α alone (eNOS mRNA [4]; HUVECs, 70 nM with TNF-α 1, 2.5, 5 ng/ml): substantially increased expression of eNOS mRNA | time at which the increase in eNOS activity begins (eNOS [5]): 24 h | duration of enhanced eNOS enzyme activity after a single dose (eNOS [5]; 100 nmol/L single dose): up to 10 days | maximum relaxation to acetylcholine, percentage of phenylephrine precontraction (rat aortic rings; rat aortic rings pretreated 250 nmol/L): 89.4±5.7% | endothelial-independent vasorelaxation in response to papaverine (rat aortic rings; [7]): remained unaffected | endothelium-dependent relaxation to acetylcholine (rat aortic rings; [7]): significantly enhanced | vasoreactivity to acetylcholine of TNF-α-damaged aortic rings (rat aortic rings; rat aortic rings, 250 nM with TNF-α 250 pg/ml): vasoreactivity can be significantly improved | toxic doses by trypan blue exclusion (CPAE cells): higher than 250 nmol/L | spontaneous beating time of cardiomyocytes at 46° C. ([6]; 1 μM, control hyperthermia 5+/−2 min): 28 ± 5 min | induction of heat shock proteins at mRNA and protein levels [6]: time- and concentration-dependently induced Hsp72 and Hsp32 | protective effects at concentrations of less than 1 μM (cardiomyocytes): did not exhibit protective effects

TNF-α
eNOS mRNA expression versus DMSO control (eNOS mRNA [4]; HUVECs, 1, 2.5 and 5 ng/ml): reduction and almost abolition of mRNA expression | acetylcholine-dependent vasodilatation versus DMSO control (rat aortic rings; rat aortic rings, 250 pg/ml): significantly reduced
